Test results published in patent US20240116910A1, “Heterocycles as WIP1 Inhibitors” (PMV Pharmaceuticals, Inc., priority 2022, published 2024).

Tests used:
[1] = target: recombinant His-tag Wip1 full length protein (amino acids #1-605) (Homo sapiens (Human), UniProt O15297); assay: Wip1 full length phosphatase enzyme FDP assay; assay type: biochemical; conditions: fluorescein diphosphate (FDP) substrate, RT 2 hours, fluorescence Ex485/Em535
[2] = target: recombinant His-tag Wip1(2-420) protein (amino acids #2-420) (Homo sapiens (Human), UniProt O15297); assay: Wip1(2-420) phosphatase enzyme FDP assay; assay type: biochemical; conditions: fluorescein diphosphate (FDP) substrate, RT 2 hours, fluorescence Ex485/Em535; read-out: WIP1 (Truncated 2-420) FDP Assay: IC50
Chain of recombinant His-tag Wip1(2-420) protein (amino acids #2-420) (O15297 2-420): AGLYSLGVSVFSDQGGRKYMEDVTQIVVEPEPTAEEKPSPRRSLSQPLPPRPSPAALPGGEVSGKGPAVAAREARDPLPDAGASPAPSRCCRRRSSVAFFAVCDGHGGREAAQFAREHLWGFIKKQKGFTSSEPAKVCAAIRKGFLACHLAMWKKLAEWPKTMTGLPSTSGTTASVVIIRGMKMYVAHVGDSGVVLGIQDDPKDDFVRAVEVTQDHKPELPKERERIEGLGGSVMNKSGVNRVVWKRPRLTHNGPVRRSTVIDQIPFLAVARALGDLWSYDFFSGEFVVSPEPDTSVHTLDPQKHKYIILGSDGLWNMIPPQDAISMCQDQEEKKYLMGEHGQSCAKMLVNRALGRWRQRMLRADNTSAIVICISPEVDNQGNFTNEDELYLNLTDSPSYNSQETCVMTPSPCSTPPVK

Chain of recombinant His-tag Wip1 full length protein (amino acids #1-605) (O15297 whole entry, the tested form may be a part): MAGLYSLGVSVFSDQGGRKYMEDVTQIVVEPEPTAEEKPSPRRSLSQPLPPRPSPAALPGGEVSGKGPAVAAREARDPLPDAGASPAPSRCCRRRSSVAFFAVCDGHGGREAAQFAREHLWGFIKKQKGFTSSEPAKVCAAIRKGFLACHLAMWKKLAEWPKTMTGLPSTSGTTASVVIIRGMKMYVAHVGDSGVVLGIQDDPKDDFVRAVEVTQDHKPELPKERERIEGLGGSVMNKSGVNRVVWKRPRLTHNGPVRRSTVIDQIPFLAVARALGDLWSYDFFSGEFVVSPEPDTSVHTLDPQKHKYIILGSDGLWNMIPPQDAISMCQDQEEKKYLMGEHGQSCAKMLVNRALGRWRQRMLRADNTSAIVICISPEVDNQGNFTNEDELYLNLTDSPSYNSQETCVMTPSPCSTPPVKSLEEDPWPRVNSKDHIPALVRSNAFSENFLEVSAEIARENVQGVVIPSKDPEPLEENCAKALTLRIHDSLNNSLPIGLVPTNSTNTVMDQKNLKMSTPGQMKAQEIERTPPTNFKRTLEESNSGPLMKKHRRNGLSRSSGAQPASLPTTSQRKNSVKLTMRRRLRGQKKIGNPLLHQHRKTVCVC

Compound	IC50 [1] [nM]	IC50 [2] [nM]
Cc1ncc(Cl)cc1N[C@@H](C)c1ncc(C(=O)N[C@@H](CC2CCCC2)C(=O)NC23CC(C2)C3)s1 [Compound 278, (2S)-N-{bicyclo[1.1.1]pentan-1-yl}-2-({2-[(1S)-1-[(5-chloro-2-methylpyridin-3-yl)amino]ethyl]-1,3-thiazol-5-yl}formamido)-3-cyclopentylpropanamide]	30	19
Cc1ncc(Cl)cc1N[C@@H](C)c1ccc(C(=O)N[C@@H](CC2CCCC2)C(=O)Nc2ccc(F)cc2)s1 [Compound 18, (2S)-2-({5-[(1S)-1-[(5-chloro-2-methylpyridin-3-yl)amino]ethyl]thiophen-2-yl}formamido)-3-cyclopentyl-N-(4-fluorophenyl)propanamide]	8	7
COc1ncc(Cl)cc1N[C@@H](C)c1ccc(C(=O)N[C@@H](CC2CCCC2)C(=O)NC2CC2)s1 [Compound 38, (2S)-2-({5-[(1S)-1-[(5-chloro-2-methoxypyridin-3-yl)amino]ethyl]thiophen-2-yl}formamido)-3-cyclopentyl-N-cyclopropylpropanamide]	9	7
Cc1cc(NC(=O)[C@H](CC2CCCC2)NC(=O)c2cnc(C(C)Nc3cccc(Cl)c3)s2)ccn1 (stereo partly drawn) [Compound 121, (2S)-2-[(2-{1-[(3-chlorophenyl)amino]ethyl}-1,3-thiazol-5-yl)formamido]-3-cyclopentyl-N-(2-methylpyridin-4-yl)propanamide]	19	66
CCn1cc(NC(=O)[C@H](CC2CCCC2)NC(=O)c2ccc([C@H](C)Nc3cc(Cl)cnc3C)s2)cn1 [Compound 162, (2S)-2-({5-[(1S)-1-[(5-chloro-2-methylpyridin-3-yl)amino]ethyl]thiophen-2-yl}formamido)-3-cyclopentyl-N-(1-ethyl-1H-pyrazol-4-yl)propanamide]	8	6
Cc1ncc(Cl)cc1N[C@@H](C)c1ccc(C(=O)N[C@@H](CC2CCCC2)C(=O)Nc2cccc(S(C)(=O)=O)c2)s1 [Compound 41, (2S)-2-({5-[(1S)-1-[(5-chloro-2-methylpyridin-3-yl)amino]ethyl]thiophen-2-yl}formamido)-3-cyclopentyl-N-(3-methanesulfonylphenyl)propanamide]	7	5
C[C@@H](Nc1cccc(Cl)c1)c1ccc(C(=O)N[C@@H](CC2CCCC2)C(=O)NC2CC2)s1 [Compound 1, 5-[1-(3-chloroanilino)ethyl]-N-[(1S)-1-(cyclopentylmethyl)-2-(cyclopropylamino)-2-oxo-ethyl]thiophene-2-carboxamide]	9	6
Cc1ncc(Cl)cc1N[C@@H](C)c1ccc(C(=O)N[C@@H](CC2CCCC2)C(=O)NC2(C(F)(F)F)CC2)s1 [Compound 42, (2S)-2-({5-[(1S)-1-[(5-chloro-2-methylpyridin-3-yl)amino]ethyl]thiophen-2-yl}formamido)-3-cyclopentyl-N-[1-(trifluoromethyl)cyclopropyl]propanamide]	15	12
CC[C@H](Nc1cc(Cl)cnc1C)c1ccc(C(=O)N[C@@H](CC2CCCC2)C(=O)N[C@H]2CC2(F)F)s1 [Compound 48, (2S)-2-({5-[(1S)-1-[(5-chloro-2-methylpyridin-3-yl)amino]propyl]thiophen-2-yl}formamido)-3-cyclopentyl-N-[(1S)-2,2-difluorocyclopropyl]propanamide]	8	5
Cc1ncc(Cl)cc1N[C@@H](C)c1ccc(C(=O)N[C@@H](CC23CC(C2)C3)C(=O)NC2CC2)s1 [Compound 72, (2S)-3-{bicyclo[1.1.1]pentan-1-yl}-2-({5-[(1S)-1-[(5-chloro-2-methylpyridin-3-yl)amino]ethyl]thiophen-2-yl}formamido)-N-cyclopropylpropanamide]	136	103
Cc1ncc(Cl)cc1N[C@@H](C)c1ccc(C(=O)N[C@@H](CC2CCCC2)C(=O)NC23CC(C(=O)O)(C2)C3)s1 [Compound 43, 3-[(2S)-2-({5-[(1S)-1-[(5-chloro-2-methylpyridin-3-yl)amino]ethyl]thiophen-2-yl}formamido)-3-cyclopentylpropanamido]bicyclo[1.1.1]pentane-1-carboxylic acid]	16	13
Cc1ncc(Cl)cc1N[C@@H](C)c1ccc(C(=O)N[C@@H](CC2CCCC2)C(=O)N[C@@H]2CC2(F)F)s1 [Compound 24, (2S)-2-({5-[(1S)-1-[(5-chloro-2-methylpyridin-3-yl)amino]ethyl]thiophen-2-yl}formamido)-3-cyclopentyl-N-[(1R)-2,2-difluorocyclopropyl]propanamide]	8	8
CCc1ncc(Cl)cc1N[C@@H](C)c1ccc(C(=O)N[C@@H](CC2CCCC2)C(=O)NC2CC2)s1 [Compound 78, (2S)-2-({5-[(1S)-1-[(5-chloro-2-ethylpyridin-3-yl)amino]ethyl]thiophen-2-yl}formamido)-3-cyclopentyl-N-cyclopropylpropanamide]	7	6
CC[C@H](Nc1cc(Cl)cnc1C)c1ccc(C(=O)N[C@@H](CC2CCCC2)C(=O)N[C@@H]2CC2(F)F)s1 [Compound 47, (2S)-2-({5-[(1S)-1-[(5-chloro-2-methylpyridin-3-yl)amino]propyl]thiophen-2-yl}formamido)-3-cyclopentyl-N-[(1R)-2,2-difluorocyclopropyl]propanamide]	11	11
Cc1cc(NC(=O)[C@@H](NC(=O)c2ccc([C@H](C)Nc3cc(Cl)cnc3C)s2)C2CCCCC2)ccn1 [Compound 175, (2S)-2-({5-[(1S)-1-[(5-chloro-2-methylpyridin-3-yl)amino]ethyl]thiophen-2-yl}formamido)-2-cyclohexyl-N-(2-methylpyridin-4-yl)acetamide]	15	13
Cc1ncc(Cl)cc1N[C@@H](C)c1ccc(C(=O)N[C@@H](CC2CCCC2)C(=O)N[C@H]2CC2(F)F)s1 [Compound 23, (2S)-2-({5-[(1S)-1-[(5-chloro-2-methylpyridin-3-yl)amino]ethyl]thiophen-2-yl}formamido)-3-cyclopentyl-N-[(1S)-2,2-difluorocyclopropyl]propanamide]	8	5
Cc1cc(NC(=O)[C@H](CCC(C)C)NC(=O)c2ccc([C@H](C)Nc3cc(Cl)cnc3C)s2)ccn1 [Compound 210, (2S)-2-({5-[(1S)-1-[(5-chloro-2-methylpyridin-3-yl)amino]ethyl]thiophen-2-yl}formamido)-5-methyl-N-(2-methylpyridin-4-yl)hexanamide]	10	7
C[C@@H](Nc1cc(Cl)cnc1C1CC1)c1ccc(C(=O)N[C@@H](CC2CCCC2)C(=O)NC2CC2)s1 [Compound 71, (2S)-2-({5-[(1R)-1-[(5-chloro-2-cyclopropylpyridin-3-yl)amino]ethyl]thiophen-2-yl}formamido)-3-cyclopentyl-N-cyclopropylpropanamide]	215	127
CNC(=O)[C@H](CC1CCCC1)NC(=O)c1ccc([C@H](C)Nc2cc(Cl)cnc2C)s1 [Compound 74, (2S)-2-({5-[(1S)-1-[(5-chloro-2-methylpyridin-3-yl)amino]ethyl]thiophen-2-yl}formamido)-3-cyclopentyl-N-methylpropanamide]	27	21
Cc1ncc(Cl)cc1N[C@@H](C)c1ccc(C(=O)N[C@@H](CC2CCCC2)C(=O)N[C@H]2C[C@H](F)C2)s1 [Compound 29, (2S)-2-({5-[(1S)-1-[(5-chloro-2-methylpyridin-3-yl)amino]ethyl]thiophen-2-yl}formamido)-3-cyclopentyl-N-[(1r,3r)-3-fluorocyclobutyl]propanamide]	7	3
Cc1ncc(Cl)cc1N[C@@H](C)c1ccc(C(=O)N[C@@H](CC2CCCC2)C(=O)NC23CC(C)(C2)C3)s1 [Compound 17, (2S)-2-({5-[(1S)-1-[(5-chloro-2-methylpyridin-3-yl)amino]ethyl]thiophen-2-yl}formamido)-3-cyclopentyl-N-{3-methylbicyclo[1.1.1]pentan-1-yl}propanamide]	6	7
Cc1ncc(Cl)cc1NC(C)c1ccc(C(=O)N[C@@H](CC2CCCC2)C(=O)NC23CC(C2)C3)s1 (stereo partly shown) [Compound 117]	70	41
C[C@H](Nc1cccc(Cl)c1)c1ccc(C(=O)N[C@@H](CC2CCCC2)C(=O)NC2CC2)s1 [Compound 2, 5-[(1S)-1-(3-chloroanilino)ethyl]-N-[(1S)-1-(cyclopentylmethyl)-2-(cyclopropylamino)-2-oxo-ethyl]thiophene-2-carboxamide]	117	232
C[C@@H](c1ccc(C(=O)N[C@@H](CC2CCCC2)C(=O)NC2CC2)s1)N1CCc2cc(F)c(Cl)cc21 [Compound 56, (2S)-2-({5-[(1S)-1-(6-chloro-5-fluoro-2,3-dihydro-1H-indol-1-yl)ethyl]thiophen-2-yl}formamido)-3-cyclopentyl-N-cyclopropylpropanamide]	50	39
Cc1cc(NC(=O)[C@H](CC2CCCC2)NC(=O)c2cnc([C@@H](C)Nc3cccc(Cl)c3)s2)cc(C)n1 [Compound 118, (2S)-2-({2-[(1R)-1-[(3-chlorophenyl)amino]ethyl]-1,3-thiazol-5-yl}formamido)-3-cyclopentyl-N-(2,6-dimethylpyridin-4-yl)propanamide]	196	135
CN(Cc1ncc(C(=O)N[C@@H](CC2CCCCC2)C(=O)Nc2ccncc2)s1)c1cncc(Cl)c1 [Compound 287, 2-[[(5-chloro-3-pyridyl)-methyl-amino]methyl]-N-[(1S)-1-(cyclohexylmethyl)-2-oxo-2-(4-pyridylamino)ethyl]thiazole-5-carboxamide]	14	6
